Test results as given in BindingDB's records for doi:10.1021/jm00033a017 (Dupont Pharmaceuticals, 1994).

Target: Prostaglandin G/H synthase 1 (Bos taurus) (UniProt O62664)
Assay: Inhibitory activity against bovine seminal vesicle prostaglandin synthetase

Sequence of Prostaglandin G/H synthase 1 (Bos taurus) (O62664 whole entry, looked up): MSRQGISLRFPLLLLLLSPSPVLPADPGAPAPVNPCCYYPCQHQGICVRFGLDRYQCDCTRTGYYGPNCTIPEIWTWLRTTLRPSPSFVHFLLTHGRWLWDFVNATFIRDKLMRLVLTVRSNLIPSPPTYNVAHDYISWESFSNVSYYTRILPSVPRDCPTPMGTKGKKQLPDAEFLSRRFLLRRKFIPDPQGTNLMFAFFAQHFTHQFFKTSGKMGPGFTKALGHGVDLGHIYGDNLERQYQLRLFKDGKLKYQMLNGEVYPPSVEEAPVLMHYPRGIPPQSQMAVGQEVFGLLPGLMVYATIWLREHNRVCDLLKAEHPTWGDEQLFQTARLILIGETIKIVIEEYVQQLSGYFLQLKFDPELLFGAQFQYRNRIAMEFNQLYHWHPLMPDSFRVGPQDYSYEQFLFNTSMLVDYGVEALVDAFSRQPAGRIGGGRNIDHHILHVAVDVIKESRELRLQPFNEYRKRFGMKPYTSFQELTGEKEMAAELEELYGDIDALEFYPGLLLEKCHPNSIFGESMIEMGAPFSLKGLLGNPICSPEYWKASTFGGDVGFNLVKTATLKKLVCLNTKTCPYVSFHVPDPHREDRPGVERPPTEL

IC50: 6.2 µM
SMILES: CS(=O)(=O)c1ccc(-c2[nH]c(SC#N)cc2-c2ccc(F)cc2)cc1 [3-(4-Fluoro-phenyl)-2-(4-methanesulfonyl-phenyl)-5-thiocyanato-1H-pyrrole]
